Here are results for 4 compounds from US20230120597A1, “CO-AGONISTS AT GLP-1 AND GIP RECEPTORS SUITABLE FOR ORAL DELIVERY” (Novo Nordisk A/S, priority 2020, published 2023).

Read-outs that look alike come from different tables or passages of the source. Starred links: 1 amine or outer side, 2 acyl side, 3 side chain; linkers in the order of their positions; H or OH if unused. Non-standard residues stand in square brackets, D forms with d. Residues, ends and D or L forms follow the SMILES beside them. Groups on a side chain read outwards from the residue. *: point of attachment. C18 diacid = O=C(O)CCCCCCCCCCCCCCCCC(=O)*; γGlu = O=C(O)[C@H](CCC(=O)[*:2])N[*:1]; εLys = N[C@@H](CCCCN[*:1])C(=O)[*:2]; AEEA = NCCOCCOCC(=O)O; Aib = CC(C)(N)C(=O)O

A short description of data set [1]: Pharmacokinetic study in dogs, oral dosing of tablet compositions with SNAC. Type of data set: in vivo, Beagle dogs. The following applies: oral tablet, SNAC 100 mg, test substance 3 mg, Beagle dogs. In short, it runs like this:
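Male beagle dogs (9-17 kg), fasted, received a single oral tablet with 100-300 mg SNAC and 3-4 mg test substance, groups of 6-8.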

The target of a further data set is T1, human GLP-1 receptor (Homo sapiens, UniProt P43220).
T1 construct: expressed in transfected cells; host or cells: BHK (parent line BHKTS13), clone BHK CRE luc2P hGLP-1R
The data set can be described thus: In vitro functional potency, CRE luciferase reporter gene assay, whole BHK cells expressing hGLP-1R. The following applies: BHK CRE luc2P hGLP-1R cells. Type of data set: cell-based. How it is done: (§1) The in vitro functional potency is the measure of target receptor activation in a whole cell assay.
(§2) In vitro functional potency was determined by measuring the response of the target receptor in a reporter gene assay in individual cell lines. […] When the respective receptor is activated, it results in the production of cAMP, which in turn results in expression of the luciferase protein. When assay incubation is completed, luciferase substrate (luciferin) is added resulting in the enzymatic conversion of luciferin to oxyluciferin and producing bioluminescence. The luminescence is measured as the readout for the assay.
(§3) The cells lines used in these assays were BHK cells with BHKTS13 as a parent cell line. The cell lines were derived from a clone containing the CRE luciferase element and were established by further transfection with the respective human receptor to obtain the relevant cell line: BHK CRE luc2P hGLP-1R or BHK CRE luc2P hGIPR. The cells were cultured at 37° C. with 5% CO2 in Cell Culture Medium. They were aliquoted and stored in liquid nitrogen. The cells were kept in continuous culture and were seeded out the day before each assay.
(§4) GLP-1R Cell Culture Medium consisted of DMEM medium with 10% FBS, 500 μg/mL G418, and 300 μg/mL hygromycin. GIPR Cell Culture Medium consisted of DMEM medium with 10% FBS, 400 μg/mL G418, and 300 μg/mL hygromycin. Assay Buffer consisted of DMEM w/o phenol red, 10 mM Hepes, 1× Glutamax. 1% ovalbumin, and 0.1% Pluronic F-68 with the addition of HSA at twice the final assay concentration.
(§5) Procedure • 1) Cells were plated at 5000 cells/well and incubated overnight in the assay plate. • 2) Cells were washed once in DPBS. • 3) Stocks of the test compounds and reference compounds in concentrations ranging from […] were diluted 1:150 in Assay Buffer. Compounds were then diluted 1:10 in column 1 of a 96 deep well dilution plate and then carried across the row creating a 3.5 fold, 12 point dilution curve. • 4) Assay Buffer (50 μl aliquot) with or without HSA was added to each well in the assay plate. • 5) A 50 μl aliquot of compound or blank was transferred from the dilution plate to the assay plate containing the Assay Buffer with or without HSA. • 6) The assay plate was incubated for 3 h in a 5% CO2 incubator at 37° C. • 7) The cells were washed once with DPBS. • 8) A 100 μl aliquot of DPBS was added to each well of the assay plate. • 9) A 100 μl aliquot of steadylite plus reagent (light sensitive) was added to each well of the assay plate. • 10) Each assay plate was covered with aluminum foil to protect it from light and shaken at 250 RPM for 30 min at room temperature. • 11) Each assay plate was read in a microtiter plate reader.
(§6) The data from the microtiter plate reader was first regressed in an Excel in order to calculate the x-axis, log scale concentrations based on the individual test compound's stock concentration and the dilutions of the assay. […] The software performs a non-linear regression (log(agonist) vs response). A minimum of two replicates was measured for each sample. The reported values are averages of the replicates.

A further data set deals with T2, human GIP receptor (Homo sapiens, UniProt P48546).
T2 construct: expressed in transfected cells; host or cells: BHK (parent line BHKTS13), clone BHK CRE luc2P hGIPR
T2 sequence (P48546 22-466): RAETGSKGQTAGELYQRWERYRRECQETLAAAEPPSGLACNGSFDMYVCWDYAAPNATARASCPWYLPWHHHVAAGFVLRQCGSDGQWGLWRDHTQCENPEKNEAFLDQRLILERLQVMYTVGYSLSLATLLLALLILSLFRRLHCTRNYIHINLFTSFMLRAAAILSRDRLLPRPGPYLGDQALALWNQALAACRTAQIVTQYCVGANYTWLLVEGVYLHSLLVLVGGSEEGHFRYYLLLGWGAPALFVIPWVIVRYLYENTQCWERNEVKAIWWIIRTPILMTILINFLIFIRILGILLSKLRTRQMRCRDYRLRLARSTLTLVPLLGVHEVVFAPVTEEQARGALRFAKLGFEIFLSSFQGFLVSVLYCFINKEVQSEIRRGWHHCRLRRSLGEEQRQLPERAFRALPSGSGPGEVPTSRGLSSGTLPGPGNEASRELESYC
Briefly: In vitro functional potency, CRE luciferase reporter gene assay, whole BHK cells expressing hGIPR. Type of data set: cell-based. The following applies: BHK CRE luc2P hGIPR cells. How it is done:
as §1, §2, §3, §4, §5, §6

Setting [2] is: hGLP-1R, CRE Luc 1% HSA EC50, 1% HSA.
The mark [3] stands for this setting: hGIPR, CRE Luc 1% HSA EC50, 1% HSA.
[4] abbreviates: 0% HSA, read-out: hGLP-1R, CRE Luc 0% HSA EC50.
[5] abbreviates: 0% HSA, read-out: hGIPR, CRE Luc 0% HSA EC50.

T1 sequence (P43220 24-463): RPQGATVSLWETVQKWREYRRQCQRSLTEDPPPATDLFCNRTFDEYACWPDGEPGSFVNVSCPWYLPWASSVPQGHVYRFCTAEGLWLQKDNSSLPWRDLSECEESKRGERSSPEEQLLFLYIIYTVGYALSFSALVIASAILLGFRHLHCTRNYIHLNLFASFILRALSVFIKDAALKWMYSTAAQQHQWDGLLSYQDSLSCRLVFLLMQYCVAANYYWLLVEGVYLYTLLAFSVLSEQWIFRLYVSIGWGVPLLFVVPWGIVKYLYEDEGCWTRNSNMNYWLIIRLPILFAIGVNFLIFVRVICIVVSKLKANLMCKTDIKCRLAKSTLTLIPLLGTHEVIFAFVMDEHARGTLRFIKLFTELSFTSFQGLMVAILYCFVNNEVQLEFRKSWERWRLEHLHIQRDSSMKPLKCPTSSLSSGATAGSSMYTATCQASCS

On to `CC[C@H](C)[C@H](NC(=O)[C@H](Cc1ccccc1)NC(=O)[C@H](CCC(=O)O)NC(=O)[C@H](CCCNC(=N)N)NC(=O)[C@H](C)NC(=O)[C@H](C)NC(=O)[C@H](CCC(N)=O)NC(=O)[C@H](CCCCNC(=O)[C@@H](N)CCCCNC(=O)[C@@H](N)CCCCNC(=O)CC[C@H](NC(=O)CCCCCCCCCCCCCCCCC(=O)O)C(=O)O)NC(=O)[C@H](CCC(=O)O)NC(=O)[C@H](CC(C)C)NC(=O)[C@H](Cc1ccc(O)cc1)NC(=O)[C@@H](NC(=O)[C@H](CO)NC(=O)[C@H](Cc1ccc(O)cc1)NC(=O)[C@H](CC(=O)O)NC(=O)[C@H](CO)NC(=O)[C@@H](NC(=O)[C@H](Cc1ccccc1)NC(=O)[C@@H](NC(=O)CNC(=O)[C@H](CCC(=O)O)NC(=O)C(C)(C)NC(=O)[C@@H](N)Cc1ccc(O)cc1)[C@@H](C)O)[C@@H](C)O)[C@@H](C)CC)C(=O)N[C@@H](CCC(=O)O)C(=O)N[C@@H](Cc1c[nH]c2ccccc12)C(=O)N[C@@H](CC(C)C)C(=O)N[C@@H](CC(C)C)C(=O)N[C@@H](CCCNC(=N)N)C(=O)NCC(=O)NCC(=O)N1CCC[C@H]1C(=O)N[C@@H](CCC(=O)O)C(=O)N[C@@H](CO)C(=O)NCC(=O)N[C@@H](C)C(=O)N1CCC[C@H]1C(=O)N1CCC[C@H]1C(=O)N1CCC[C@H]1C(=O)N[C@@H](CO)C(=O)O` [Compound No. 13] (H-Y[Aib]EGTFTSDYSIYLEK([εLys-εLys-γGlu-C18 diacid])QAAREFIEWLLRGGPESGAPPPS-OH), for which the half-life in data set [1] (male, dog, in vivo, harmonic mean, read-out: t1/2 (converted)) was 60 h. For the same compound, in data set [1] (male, dog, in vivo, median, read-out: Tmax), the Tmax worked out at 1.5 h. Also, the AUC/Dose in data set [1] (arithmetic mean) amounted to 14.8 kg·h/L. The concentration giving a half-maximal response (EC50) at human GLP-1 receptor (hGLP-1R, CRE Luc 0% HSA EC50, 0% HSA) was 0.0074 nM; on human GLP-1 receptor (setting [2]) it was 0.204 nM; at human GIP receptor (hGIPR, CRE Luc 0% HSA EC50, 0% HSA) it was 0.0139 nM; on human GIP receptor (setting [3]), 0.257 nM.

Take `CC[C@H](C)[C@H](NC(=O)[C@H](Cc1ccccc1)NC(=O)[C@H](CCC(=O)O)NC(=O)[C@H](CCCNC(=N)N)NC(=O)[C@H](C)NC(=O)[C@H](C)NC(=O)[C@H](CCC(N)=O)NC(=O)[C@H](CCCCNC(=O)[C@@H](N)CCCCNC(=O)[C@@H](N)CCCCNC(=O)CC[C@H](NC(=O)CCCCCCCCCCCCCCCCC(=O)O)C(=O)O)NC(=O)[C@H](CCC(=O)O)NC(=O)[C@H](CC(C)C)NC(=O)[C@H](Cc1ccc(O)cc1)NC(=O)[C@@H](NC(=O)[C@H](CO)NC(=O)[C@H](Cc1ccc(O)cc1)NC(=O)[C@H](CC(=O)O)NC(=O)[C@H](CO)NC(=O)[C@@H](NC(=O)[C@H](Cc1ccccc1)NC(=O)[C@@H](NC(=O)CNC(=O)[C@H](CCC(=O)O)NC(=O)C(C)(C)NC(=O)[C@@H](N)Cc1ccc(O)cc1)[C@@H](C)O)[C@@H](C)O)[C@@H](C)CC)C(=O)N[C@@H](CC(N)=O)C(=O)N[C@@H](Cc1c[nH]c2ccccc12)C(=O)N[C@@H](CC(C)C)C(=O)N[C@@H](CC(C)C)C(=O)N[C@@H](C)C(=O)NCC(=O)NCC(=O)N1CCC[C@H]1C(=O)N[C@@H](CO)C(=O)N[C@@H](CO)C(=O)NCC(=O)N[C@@H](C)C(=O)N1CCC[C@H]1C(=O)N1CCC[C@H]1C(=O)N1CCC[C@H]1C(=O)N[C@@H](CO)C(N)=O` [Compound No. 8] (H-Y[Aib]EGTFTSDYSIYLEK([εLys-εLys-γGlu-C18 diacid])QAAREFINWLLAGGPSSGAPPPS-NH2): the EC50 at human GLP-1 receptor (setting [4]) stood at 0.0023 nM; at human GLP-1 receptor (setting [2]) it was 0.0821 nM; on human GIP receptor (setting [5]), 0.0067 nM; on human GIP receptor (setting [3]) it was 0.191 nM.

`CC(C)C[C@H](NC(=O)[C@H](CC(C)C)NC(=O)[C@H](Cc1c[nH]c2ccccc12)NC(=O)[C@H](CC(N)=O)NC(=O)[C@@H](NC(=O)[C@H](Cc1ccccc1)NC(=O)[C@H](C)NC(=O)[C@H](CCC(N)=O)NC(=O)[C@H](C)NC(=O)[C@H](C)NC(=O)[C@H](CCC(N)=O)NC(=O)[C@H](CCCCNC(=O)[C@@H](N)CCCCNC(=O)[C@@H](N)CCCCNC(=O)CC[C@H](NC(=O)CCCCCCCCCCCCCCCCC(=O)O)C(=O)O)NC(=O)[C@H](CCC(=O)O)NC(=O)[C@H](CC(C)C)NC(=O)[C@H](Cc1ccc(O)cc1)NC(=O)[C@H](Cc1ccc(O)cc1)NC(=O)[C@H](CO)NC(=O)[C@H](Cc1ccc(O)cc1)NC(=O)[C@H](CC(=O)O)NC(=O)[C@H](CO)NC(=O)[C@@H](NC(=O)[C@H](Cc1ccccc1)NC(=O)[C@@H](NC(=O)CNC(=O)[C@H](CCC(=O)O)NC(=O)C(C)(C)NC(=O)[C@@H](N)Cc1ccc(O)cc1)[C@@H](C)O)[C@@H](C)O)C(C)C)C(=O)N[C@@H](C)C(=O)NCC(=O)NCC(=O)N1CCC[C@H]1C(=O)N[C@@H](CO)C(=O)N[C@@H](CO)C(=O)NCC(=O)N[C@@H](C)C(=O)N1CCC[C@H]1C(=O)N1CCC[C@H]1C(=O)N1CCC[C@H]1C(=O)N[C@@H](CO)C(N)=O` [Compound No. 4] (H-Y[Aib]EGTFTSDYSYYLEK([εLys-εLys-γGlu-C18 diacid])QAAQAFVNWLLAGGPSSGAPPPS-NH2; N-terminus assumed): the EC50 at human GLP-1 receptor (setting [4]) stood at 0.0066 nM; at human GLP-1 receptor (setting [2]), 0.484 nM; at human GIP receptor (setting [5]), 0.0085 nM; at human GIP receptor (setting [3]) it was 0.294 nM.

Take `CC[C@H](C)[C@H](NC(=O)[C@H](CO)NC(=O)[C@H](Cc1ccc(O)cc1)NC(=O)[C@H](CC(=O)O)NC(=O)[C@H](CO)NC(=O)[C@@H](NC(=O)[C@H](Cc1ccccc1)NC(=O)[C@@H](NC(=O)CNC(=O)[C@H](CCC(=O)O)NC(=O)C(C)(C)NC(=O)[C@@H](N)Cc1ccc(O)cc1)[C@@H](C)O)[C@@H](C)O)C(=O)N[C@@H](Cc1ccc(O)cc1)C(=O)N[C@@H](CC(C)C)C(=O)N[C@@H](CCC(=O)O)C(=O)N[C@@H](CCCCNC(=O)COCCOCCNC(=O)COCCOCCNC(=O)CC[C@H](NC(=O)CCCCCCCCCCCCCCCCC(=O)O)C(=O)O)C(=O)N[C@@H](CCC(N)=O)C(=O)N[C@@H](C)C(=O)N[C@@H](C)C(=O)N[C@@H](CCCNC(=N)N)C(=O)N[C@@H](CCC(=O)O)C(=O)N[C@@H](Cc1ccccc1)C(=O)N[C@H](C(=O)N[C@@H](CC(N)=O)C(=O)N[C@@H](Cc1c[nH]c2ccccc12)C(=O)N[C@@H](CC(C)C)C(=O)N[C@@H](CC(C)C)C(=O)N[C@@H](C)C(=O)NCC(=O)NCC(=O)N1CCC[C@H]1C(=O)N[C@@H](CO)C(=O)N[C@@H](CO)C(=O)NCC(=O)N[C@@H](C)C(=O)N1CCC[C@H]1C(=O)N1CCC[C@H]1C(=O)N1CCC[C@H]1C(=O)N[C@@H](CO)C(N)=O)C(C)C` [Compound No. 7] (H-Y[Aib]EGTFTSDYSIYLEK([AEEA-AEEA-γGlu-C18 diacid])QAAREFVNWLLAGGPSSGAPPPS-NH2): the EC50 on human GLP-1 receptor (setting [4]) worked out at 0.0042 nM; at human GLP-1 receptor (setting [2]), 0.513 nM; at human GIP receptor (setting [5]), 0.0287 nM; at human GIP receptor (setting [3]) it was 0.687 nM.
